Measurements: paper PMC11861906, “Structural basis for lipid-mediated activation of G protein-coupled receptor GPR55” (Nature Communications, 2025)

Target: wt GPR55 (Gα12) (Homo sapiens, UniProt Q9Y2T6)
Test: BRET² G protein dissociation assay, wt GPR55 with Gα12
Assay type: cell-based
Conditions: for ΔBRET² ratio (Mean): GPR55-wt-G12
From the text: Guided by structural insights, we employed the G protein dissociation assay to validate the G protein selectivity of GPR55. The sequences of Gα13 and Gα12 are highly similar (76% sequence similarity) and only seven Gα13 residues differ within a 4 Å sphere of the receptor- G protein interaction site (Fig. 5d). Therefore, we included Gα12 in our assays as a control since it was reported that 1-AG-PI-activated GPR55 signals exclusively via Gα13[10]. Herein, we observed robust G protein activation (concluded from a BRET² ratio decrease) when GPR55 was co-expressed with Gα13 (Fig. 5b), even without the addition of any ligand. (Fig. 2f and Supplementary Table S3). This observation is indicative of constitutive activity; however, it could also be explained by GPR55 interaction with cellular lipids that are ubiquitously present. […] (Fig. 5c).
G protein dissociation assays were performed according to the original protocols of the TRUPATH BRET² assay[47],[87] but with subtle modifications as previously described[61],[88],[89]. All reagents and cells were obtained from Thermo Fisher Scientific unless indicated otherwise. The coding sequences for the G protein biosensors[47] (Gα12-Rluc8, Gα13-Rluc8, wt Gβ3, and Gγ9-GFP), the wt GPR55, the construct used for cryo-EM (with GFP bearing a G67A mutation to disrupt fluorescence properties[48] for BRET² assays), GPR55 binding pocket mutants (G152^4.56F, G152^4.56W, N171^ECL2Q, N171^ECL2A, T176^5.33A, R253^6.62A), and the wt TBXA2R were codon-optimized for Homo sapiens, gene-synthesized, and sub-cloned into pcDNA^TM3.1(+) between NheI and HindIII restriction sites by GeneArt (Thermo Fisher Scientific). […] Freshly grown cells were washed with Dulbecco’s Balanced Salt Solution (DPBS, cat. #14200075) and detached using trypsin-ethylenediaminetetraacetic acid (trypsin-EDTA) (cat. #25300-062). Then, the cells were reconstituted to 500,000 cells per mL with fresh medium, and 1,000,000 cells were seeded into each well of a 6-well plate. After 3 h incubation at 37 °C and 5% CO2, adherent cells were transfected with 600 ng DNA (1:1:1:1 ratio of plasmid DNA for GPR55, wt Gβ3, Gγ9-GFP, and Gα12-Rluc8 or Gα13-Rluc8). Plasmid DNA was mixed with 1.5 µL Lipofectamine^TM 2000 (cat. #11668027) in Opti-MEM^TM medium (cat. #31985062) and incubated for 20 min. Then, the mixture was added to each well of the 6-well plate following 24 h incubation at 37 °C and 5% CO2. Transfected cells were washed with DPBS, detached using EDTA (Versene, cat. #15040066), and reconstituted into fresh medium at 500,000 cells mL^−1. From this suspension, 50,000 cells were seeded into each well of a white-bottom 96-well plate (Nunc^TM MicroWell^TM 96 wells, cat. #136101) following overnight incubation at 37 °C and 5% CO2. Then, the adherent cells were washed with assay medium [Hank’s balanced salt solution (HBSS, cat. #14065056) plus 20 mM HEPES pH 7.4 (cat. #15630056)] and finally reconstituted into 50 µL of the same medium. […] Methoxy e-Coelenterazine was used as luciferase substrate (Prolume Purple, NanoLight Technology, cat. #369), reconstituted at 1 mM in methanol and diluted to 37.5 µM with assay buffer (7.5 µM final assay concentration). The assay was started by the addition of 20 µL luciferase substrate to each well of the assay plate using a Multidrop^TM Combi reagent dispenser (Thermo Fisher Scientific), followed by 5 min incubation at room temperature. Then, 30 µL of agonist dilutions or DMSO control was added (final DMSO concentration 1.5%), followed by an additional 5 min incubation at room temperature.

Sequence of wt GPR55 (Gα12) (Q9Y2T6 whole entry): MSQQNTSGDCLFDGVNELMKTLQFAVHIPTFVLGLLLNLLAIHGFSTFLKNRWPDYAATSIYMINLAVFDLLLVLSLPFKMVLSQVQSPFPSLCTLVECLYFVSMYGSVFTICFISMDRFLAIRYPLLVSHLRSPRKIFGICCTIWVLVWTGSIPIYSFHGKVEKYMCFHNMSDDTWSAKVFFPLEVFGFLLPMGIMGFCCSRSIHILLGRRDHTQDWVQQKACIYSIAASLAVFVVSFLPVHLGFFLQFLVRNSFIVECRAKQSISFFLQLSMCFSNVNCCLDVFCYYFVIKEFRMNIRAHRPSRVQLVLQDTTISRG

Structure (SMILES)	ΔBRET² ratio (Mean) (3e-10 M)	ΔBRET² ratio (Mean) (1e-9 M)	ΔBRET² ratio (Mean) (3e-9 M)	ΔBRET² ratio (Mean) (1e-8 M)	ΔBRET² ratio (Mean) (3e-8 M)	ΔBRET² ratio (Mean) (1e-7 M)	ΔBRET² ratio (Mean) (3e-7 M)	ΔBRET² ratio (Mean) (1e-6 M)	ΔBRET² ratio (Mean) (3e-6 M)	ΔBRET² ratio (Mean) (1e-5 M)	ΔBRET² ratio (Mean) (3e-5 M)	G protein activation at GPR55-transfected cells (in words) (wt GPR55, Gα12)
Cc1cccc(N2CCN(C(=O)c3cc(S(=O)(=O)N(C)C)ccc3N3CCCC3)CC2)c1C [ML184, 3-[[4-(2,3-dimethylphenyl)-1-piperazinyl]carbonyl]-N,N-dimethyl-4-(1-pyrrolidinyl)benzenesulfonamide]	0.009016	0.003569	-0.002484	-0.008889	-0.006497	-0.00961	-0.01427	-0.01536	-0.01786	-0.02016	-0.02115	
CCCCC[C@H](O)/C=C/[C@@H]1[C@@H](C/C=C\CCCC(=O)O)[C@H]2CO[C@@H]1C2 [U-46619]												inactive
